# Results from paper PMC10649086 (Antimicrobial Agents and Chemotherapy, 2023).
# Key:
# SARS-CoV-2 M^pro H164N [1] = target: T1, SARS-CoV-2 M^pro H164N (Severe acute respiratory syndrome coronavirus 2, UniProt P0DTC1, H3427N); settings: cited from earlier work
# SARS-CoV-2 M^pro P132H = settings: cited from earlier work
# SARS-CoV-2 M^pro G15S [2] = target: T2, SARS-CoV-2 M^pro G15S (Severe acute respiratory syndrome coronavirus 2, UniProt P0DTC1, G3278S); settings: cited from earlier work
# SARS-CoV-2 M^pro D248E [3] = target: T3, SARS-CoV-2 M^pro D248E (Severe acute respiratory syndrome coronavirus 2, UniProt P0DTC1, D3511E); settings: cited from earlier work
# SARS-CoV-2 M^pro T135I [4] = target: T4, SARS-CoV-2 M^pro T135I (Severe acute respiratory syndrome coronavirus 2, UniProt P0DTC1, T3398I); settings: cited from earlier work
# [5] = target: SARS-CoV-2 M^pro T21I + C160F + A173V+ V186A + T304I (Severe acute respiratory syndrome coronavirus 2, UniProt P0DTC1, A3436V/C3423F/T3284I/T3567I/V3449A); type: biochemical
# [6] = target: SARS-CoV-2 M^pro L50F + E166A (Severe acute respiratory syndrome coronavirus 2, UniProt P0DTC1, E3429A/L3313F); type: biochemical
# [7] = target: SARS-CoV-2 M^pro A173V + T304I (Severe acute respiratory syndrome coronavirus 2, UniProt P0DTC1, A3436V/T3567I); type: biochemical
# [8] = target: SARS-CoV-2 M^pro T21I + A173V (Severe acute respiratory syndrome coronavirus 2, UniProt P0DTC1, A3436V/T3284I); type: biochemical
# SARS-CoV-2 M^pro H172Y = SARS-CoV-2 M^pro H172Y (Severe acute respiratory syndrome coronavirus 2, UniProt P0DTC1, H3435Y); type: biochemical
# [9] = target: SARS-CoV-2 M^pro T21I + L50F (Severe acute respiratory syndrome coronavirus 2, UniProt P0DTC1, L3313F/T3284I); type: biochemical
# SARS-CoV-2 M^pro T135I [10] = target: T4, SARS-CoV-2 M^pro T135I; type: biochemical
# SARS-CoV-2 M^pro Q189K = SARS-CoV-2 M^pro Q189K (Severe acute respiratory syndrome coronavirus 2, UniProt P0DTC1, Q3452K); type: biochemical
# [11] = target: SARS-CoV-2 M^pro L50F + E166A + L167F (Severe acute respiratory syndrome coronavirus 2, UniProt P0DTC1, E3429A/L3313F/L3430F); type: biochemical
# SARS-CoV-2 M^pro E166V = SARS-CoV-2 M^pro E166V (Severe acute respiratory syndrome coronavirus 2, UniProt P0DTC1, E3429V); type: biochemical
# [12] = target: SARS-CoV-2 M^pro L50F + F140L + L167F + T304I (Severe acute respiratory syndrome coronavirus 2, UniProt P0DTC1, F3403L/L3313F/L3430F/T3567I); type: biochemical
# [13] = target: SARS-CoV-2 M^pro T21I + A173V + T304I (Severe acute respiratory syndrome coronavirus 2, UniProt P0DTC1, A3436V/T3284I/T3567I); type: biochemical
# SARS-CoV-2 M^pro K90R = SARS-CoV-2 M^pro K90R (Severe acute respiratory syndrome coronavirus 2, UniProt P0DTC1, K3353R); type: biochemical
# SARS-CoV-2 M^pro S144A = SARS-CoV-2 M^pro S144A (Severe acute respiratory syndrome coronavirus 2, UniProt P0DTC1, S3407A); type: biochemical
# [14] = target: SARS-CoV-2 M^pro T21I + L50F + A193P + S301P (Severe acute respiratory syndrome coronavirus 2, UniProt P0DTC1, A3456P/L3313F/S3564P/T3284I); type: biochemical
# [15] = target: SARS-CoV-2 M^pro T21I + S144A (Severe acute respiratory syndrome coronavirus 2, UniProt P0DTC1, S3407A/T3284I); type: biochemical
# SARS-CoV-2 M^pro A260V = SARS-CoV-2 M^pro A260V (Severe acute respiratory syndrome coronavirus 2, UniProt P0DTC1, A3523V); type: biochemical
# SARS-CoV-2 M^pro D248E [16] = target: T3, SARS-CoV-2 M^pro D248E; type: biochemical
# [17] = target: SARS-CoV-2 M^pro T21I + S144A + T304I (Severe acute respiratory syndrome coronavirus 2, UniProt P0DTC1, S3407A/T3284I/T3567I); type: biochemical
# SARS-CoV-2 M^pro H164N [18] = target: T1, SARS-CoV-2 M^pro H164N; type: biochemical
# [19] = target: SARS-CoV-2 M^pro H172Y + P252L (Severe acute respiratory syndrome coronavirus 2, UniProt P0DTC1, H3435Y/P3515L); type: biochemical
# SARS-CoV-2 M^pro T21I = SARS-CoV-2 M^pro T21I (Severe acute respiratory syndrome coronavirus 2, UniProt P0DTC1, T3284I); type: biochemical
# [20] = target: SARS-CoV-2 M^pro L50F + E166V (Severe acute respiratory syndrome coronavirus 2, UniProt P0DTC1, E3429V/L3313F); type: biochemical
# [21] = target: SARS-CoV-2 M^pro L50F + A173V (Severe acute respiratory syndrome coronavirus 2, UniProt P0DTC1, A3436V/L3313F); type: biochemical
# [22] = target: SARS-CoV-2 M^pro T21I + E166V (Severe acute respiratory syndrome coronavirus 2, UniProt P0DTC1, E3429V/T3284I); type: biochemical
# [23] = target: SARS-CoV-2 M^pro T21I + T304I (Severe acute respiratory syndrome coronavirus 2, UniProt P0DTC1, T3284I/T3567I); type: biochemical
# [24] = target: SARS-CoV-2 M^pro L50F + T304I (Severe acute respiratory syndrome coronavirus 2, UniProt P0DTC1, L3313F/T3567I); type: biochemical
# SARS-CoV-2 M^pro L50F = SARS-CoV-2 M^pro L50F (Severe acute respiratory syndrome coronavirus 2, UniProt P0DTC1, L3313F); type: biochemical
# SARS-CoV-2 M^pro E166A = SARS-CoV-2 M^pro E166A (Severe acute respiratory syndrome coronavirus 2, UniProt P0DTC1, E3429A); type: biochemical
# SARS-CoV-2 M^pro G15S [25] = target: T2, SARS-CoV-2 M^pro G15S; type: biochemical
# [26] = target: SARS-CoV-2 M^pro T135I + T304I (Severe acute respiratory syndrome coronavirus 2, UniProt P0DTC1, T3398I/T3567I); type: biochemical
# [27] = tested on: SARS-CoV-2-EGFP replicon T21I; type: cell-based
# [28] = tested on: SARS-CoV-2-EGFP replicon E166A; type: cell-based
# [29] = tested on: SARS-CoV-2-EGFP replicon T21I + L50F; type: cell-based
# [30] = tested on: SARS-CoV-2-EGFP replicon L50F + E166A + L167F; type: cell-based
# [31] = tested on: SARS-CoV-2-EGFP replicon L50F; type: cell-based
# [32] = tested on: SARS-CoV-2 D614G B.1 (ancestral); type: cell-based
# [33] = tested on: SARS-CoV-2-EGFP replicon L50F + E166A; type: cell-based
# [34] = tested on: SARS-CoV-2-EGFP replicon L167F; type: cell-based
# [35] = tested on: SARS-CoV-2-EGFP replicon S144A; type: cell-based
compound,measurement,setting,value
CC(C)(C)[C@H](NC(=O)C(F)(F)F)C(=O)N1C[C@H]2[C@@H]([C@H]1C(=O)N[C@H](C#N)C[C@@H]1CCNC1=O)C2(C)C [nirmatrelvir],resistance in the Mpro assay,SARS-CoV-2 M^pro H164N [1],~fourfold
same,effect of P132H variant on inhibition,SARS-CoV-2 M^pro P132H,no effect
same,resistance in the Mpro assay,SARS-CoV-2 M^pro G15S [2],~fourfold
same,resistance in the Mpro assay,SARS-CoV-2 M^pro D248E [3],~fourfold
same,resistance in the Mpro assay,SARS-CoV-2 M^pro T135I [4],~fourfold
GC376,IC50,[5],90 nM
same,IC50,[6],270 nM
same,IC50,[7],100 nM
same,IC50,[8],80 nM
same,IC50,SARS-CoV-2 M^pro H172Y,410 nM
same,IC50,[9],20 nM
same,IC50,SARS-CoV-2 M^pro T135I [10],20 nM
same,IC50,SARS-CoV-2 M^pro Q189K,50 nM
same,IC50,[11],760 nM
same,IC50,SARS-CoV-2 M^pro E166V,660 nM
same,IC50,[12],170 nM
same,IC50,[13],90 nM
same,IC50,SARS-CoV-2 M^pro K90R,10 nM
same,IC50,SARS-CoV-2 M^pro S144A,120 nM
same,IC50,[14],70 nM
same,IC50,[15],120 nM
same,IC50,SARS-CoV-2 M^pro A260V,20 nM
same,IC50,SARS-CoV-2 M^pro D248E [16],30 nM
same,IC50,[17],190 nM
same,IC50,SARS-CoV-2 M^pro H164N [18],80 nM
same,IC50,[19],280 nM
same,IC50,SARS-CoV-2 M^pro T21I,20 nM
same,IC50,[20],430 nM
same,IC50,[21],60 nM
same,IC50,[22],590 nM
same,IC50,[23],50 nM
same,IC50,[24],60 nM
same,IC50,SARS-CoV-2 M^pro L50F,20 nM
same,IC50,SARS-CoV-2 M^pro E166A,320 nM
same,IC50,SARS-CoV-2 M^pro G15S [25],20 nM
same,IC50,[26],70 nM
N#C[C@H](C[C@@H]1CCCNC1=O)NC(=O)[C@H](CC1CC1)NC(=O)c1cc2cccc(Cl)c2[nH]1 [pomotrelvir],EC50,[27]; read-out: EC50 Mean (SD),33 nM
same,EC90,[27]; read-out: EC90 Mean (SD),270 nM
same,EC50,[28]; read-out: EC50 Mean (SD),110 nM
same,EC90,[28]; read-out: EC90 Mean (SD),710 nM
same,EC50,[29]; read-out: EC50 Mean (SD),110 nM
same,EC90,[29]; read-out: EC90 Mean (SD),780 nM
same,EC50,[30]; read-out: EC50 Mean (SD),1400 nM
same,EC90,[30]; read-out: EC90 Mean (SD),8300 nM
same,EC50,[31]; read-out: EC50 Mean (SD),14 nM
same,EC90,[31]; read-out: EC90 Mean (SD),150 nM
same,EC50,[32]; read-out: EC50 Mean (SD),151 nM
same,EC90,[32]; read-out: EC90 Mean (SD),547 nM
same,EC50,[33]; read-out: EC50 Mean (SD),410 nM
same,EC90,[33]; read-out: EC90 Mean (SD),1800 nM
same,EC50,[34]; read-out: EC50 Mean (SD),56 nM
same,EC90,[34]; read-out: EC90 Mean (SD),510 nM
same,EC50,[35]; read-out: EC50 Mean (SD),92 nM
same,EC90,[35]; read-out: EC90 Mean (SD),560 nM
